Reference: paper PMC11859264, “Discovery of a Novel Multitarget Analgesic Through an In Vivo-Guided Approach” (Pharmaceuticals, 2025)

Test system: formalin model
Experiment: Formalin test in mice (primary in vivo screening and ED50)
Parameters: species or system ICR male mice
Method: For primary screening, the synthesized compounds were administered to mice via intraperitoneal injection at a dose of 5 mg/kg using the formalin model. The percentage inhibition in the second phase, relative to the vehicle control (DMSO/cremophor EL/distilled water = 10:10:80), was calculated.
Each compound was assessed using four doses (0.1, 1, 5, and 10 mg/kg) by intraperitoneal injection.
ICR male mice weighing 23–25 g was purchased from Samtako Korea (Osan, Republic of Korea). ICR mice were housed four per cage in a room with 12 h light–dark cycles. The temperature and relative humidity of the room were maintained at 22 ± 2 °C and 50 ± 5%, respectively. Food and water were available ad libitum. The procedures for animal testing were approved by Medifron Animal Care and Use Committees (Approval number; Medifron 2019-9). Efforts were made to minimize animal suffering and to reduce the number of animals used.
Mice were randomly assigned to five groups (four per group) and single-dose drugs were administered by intraperitoneal injection. The formalin-induced licking paw test was modified from the method described by Dubuisson and Dennis. Each mouse was acclimated to an acrylic observation chamber for at least 30 min before the injection of formalin. Twenty microliters of 2% formalin were injected subcutaneously into the right side of the hind paw. Each mouse was then placed in an individual clear plastic observational chamber (15 × 15 × 15 cm, volume = […] or 3.375 L), and the pain response was recorded for a period of 30 min. The summation of time (in seconds) spent in licking and biting responses of the injected paw during each 5 min block was measured as an indicator of the pain response. The first period (early phase) was recorded 0–5 min after the injection of formalin, and the second period (late phase) was recorded 20–30 min after the injection. The test compound was administered intraperitoneally 30 min before the formalin injection at […]: 0.1, 1, 5, and 10 mg/kg. The vehicle was DMSO/Cremophor EL/distilled water (10/10/80). The data were expressed as the mean ± standard error of the mean (SEM). Statistical analysis was assessed by one-way analysis of variance (ANOVA) with Bonferroni’s post hoc test. Statistical significance was set at p-value < 0.05, with values of p <0.001 considered highly significant.

For `N#Cc1ccc2[nH]cc(C(=O)NCCN3CCN(c4ccc5ccccc5n4)CC3)c2c1` [Compound 29, 5-Cyano-N-(2-(4-(quinolin-2-yl)piperazin-1-yl)ethyl)-1H-indole-3-carboxamide], the ED50 (Mus musculus, ip, read-out: ED50 in the second phase of the formalin model) was 0.78 mg/kg and the “activity in the first phase of the formalin model” value (mice, intraperitoneal, first phase) was “relatively weak”.
